Test results as given in US12410164B2, “Heterocyclic compounds and medical use thereof” (FONDAZIONE TELETHON, priority 2018, dated 2025).

molecular target: F508del-CFTR (Homo sapiens, UniProt P13569, DEL508-508); assay: HS-YFP kinetic fluorescence (iodide quenching rate) assay in CFBE41o− cells; format: cell-based; set-up: expressed in transfected cells; host or cells: CFBE41o- cells with expression of F508del-CFTR and HS-YFP (generated as in Sondo et al. 2011); conditions: Table 1; compound at 10 μM plus VX-809; (QRTOT − QRVX)/QRVX, HS-YFP assay
Summary of the method: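 CFBE41o- cells co-expressing F508del-CFTR and HS-YFP, treated 24 h with compound (0.1-0.2% DMSO), then stimulated with 20 μM forskolin plus 50 μM genistein. Fluorescence was read for 14 s during NaI injection. Background-subtracted, normalized traces were fitted exponentially to give maximum quenching rate (QR).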

Sequence of F508del-CFTR (P13569 with tags, fused parts or gaps DEL508-508): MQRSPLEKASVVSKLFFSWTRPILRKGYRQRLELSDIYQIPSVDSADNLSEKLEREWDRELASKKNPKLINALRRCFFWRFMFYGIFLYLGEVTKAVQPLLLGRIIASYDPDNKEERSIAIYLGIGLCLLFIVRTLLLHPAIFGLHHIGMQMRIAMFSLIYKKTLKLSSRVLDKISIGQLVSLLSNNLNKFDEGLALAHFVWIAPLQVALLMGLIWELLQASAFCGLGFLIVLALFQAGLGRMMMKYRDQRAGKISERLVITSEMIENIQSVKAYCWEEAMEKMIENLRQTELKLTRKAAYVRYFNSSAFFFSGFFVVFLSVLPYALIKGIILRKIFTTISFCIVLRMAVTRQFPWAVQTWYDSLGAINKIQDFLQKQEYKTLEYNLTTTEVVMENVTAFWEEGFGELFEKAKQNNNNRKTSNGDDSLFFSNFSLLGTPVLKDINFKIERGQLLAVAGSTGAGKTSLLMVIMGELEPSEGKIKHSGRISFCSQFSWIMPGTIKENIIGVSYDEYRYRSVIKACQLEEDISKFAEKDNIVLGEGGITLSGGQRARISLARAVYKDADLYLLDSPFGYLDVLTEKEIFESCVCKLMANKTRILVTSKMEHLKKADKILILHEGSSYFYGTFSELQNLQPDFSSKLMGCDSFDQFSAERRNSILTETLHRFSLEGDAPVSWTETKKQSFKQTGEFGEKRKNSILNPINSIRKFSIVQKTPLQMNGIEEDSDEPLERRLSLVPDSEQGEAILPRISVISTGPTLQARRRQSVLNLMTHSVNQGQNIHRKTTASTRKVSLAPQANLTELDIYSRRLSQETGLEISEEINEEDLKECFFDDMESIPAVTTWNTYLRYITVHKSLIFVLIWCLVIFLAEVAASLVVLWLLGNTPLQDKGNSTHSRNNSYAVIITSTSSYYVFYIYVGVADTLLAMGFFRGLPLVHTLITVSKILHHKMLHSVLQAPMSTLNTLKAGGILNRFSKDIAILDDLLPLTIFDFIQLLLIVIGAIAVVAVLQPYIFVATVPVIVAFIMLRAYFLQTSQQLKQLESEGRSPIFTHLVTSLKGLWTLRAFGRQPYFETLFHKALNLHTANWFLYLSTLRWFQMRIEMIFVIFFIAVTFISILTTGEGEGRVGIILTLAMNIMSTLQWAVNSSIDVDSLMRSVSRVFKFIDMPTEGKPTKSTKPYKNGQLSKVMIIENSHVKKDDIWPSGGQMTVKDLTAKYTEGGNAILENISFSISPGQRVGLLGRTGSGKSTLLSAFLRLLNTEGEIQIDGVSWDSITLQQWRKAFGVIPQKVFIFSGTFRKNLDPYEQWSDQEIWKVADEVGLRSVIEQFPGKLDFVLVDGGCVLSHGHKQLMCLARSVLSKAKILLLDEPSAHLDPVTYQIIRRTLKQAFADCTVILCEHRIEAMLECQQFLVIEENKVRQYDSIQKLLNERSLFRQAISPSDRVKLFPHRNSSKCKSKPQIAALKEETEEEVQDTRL

Compound | AI (%) additivity index [%]
Cc1ccc(Cn2c(C(N)=O)c(Br)c3c2-c2[nH]c(=O)c(S(=O)(=O)c4ccccc4)cc2CC3)cc1 [PP089, 7-(Benzenesulfonyl)-3-bromo-1-[(4-methylphenyl)methyl]-8-oxo-4,5,8,9-tetrahydro-1H-pyrrolo[3,2-h]quinoline-2-carboxamide] | 11
COC(=O)c1cc2c(n1Cc1ccc(C)cc1)-c1[nH]c(=O)c(S(=O)(=O)c3ccccc3)cc1CC2 [PP019, Methyl 1-(4-methylbenzyl)-8-oxo-7-(phenylsulfonyl)-4,5,8,9-tetrahydro-1H-pyrrolo[3,2-h]quinoline-2-carboxylate] | 29
Cc1cccc(Cn2c(C(=O)NC3CC3)cc3c2-c2[nH]c(=O)c(S(=O)(=O)c4ccccc4)cc2CC3)c1 [PP092, 7-(Benzenesulfonyl)-N-cyclopropyl-1-[(3-methylphenyl)methyl]-8-oxo-4,5,8,9-tetrahydro-1H-pyrrolo[3,2-h]quinoline-2-carboxamide] | 52
CCOC(=O)c1c(Br)c2c(n1Cc1ccc(C)cc1C)-c1[nH]c(=O)c(S(=O)(=O)c3ccccc3)cc1CC2 [PP033, Ethyl 7-(benzenesulfonyl)-3-bromo-1-[(2,4-dimethylphenyl)methyl]-8-oxo-4,5,8,9-tetrahydro-1H-pyrrolo[3,2-h]quinoline-2-carboxylate] | 114
CCOC(=O)c1cc2c(n1Cc1ccc(C)c(C)c1)-c1[nH]c(=O)c(S(=O)(=O)c3ccccc3)cc1CC2 [PP025, Ethyl 7-(benzenesulfonyl)-1-[(3,4-dimethylphenyl)methyl]-8-oxo-4,5,8,9-tetrahydro-1H-pyrrolo[3,2-h]quinoline-2-carboxylate] | 178
CC(C)OC(=O)c1cc2c(n1CC1CC1)-c1[nH]c(=O)c(S(=O)(=O)c3ccccc3)cc1CC2 [PP105, Propan-2-yl 7-(benzenesulfonyl)-1-(cyclopropylmethyl)-8-oxo-4,5,8,9-tetrahydro-1H-pyrrolo[3,2-h]quinoline-2-carboxylate] | 174
O=C(NC1CC1)c1c(Br)c2c(n1Cc1ccc(Br)cc1)-c1[nH]c(=O)c(S(=O)(=O)c3ccccc3)cc1CC2 [PP099, 7-(Benzenesulfonyl)-3-bromo-1-[(4-bromophenyl)methyl]-N-cyclopropyl-8-oxo-4,5,8,9-tetrahydro-1H-pyrrolo[3,2-h]quinoline-2-carboxamide] | 82
Cc1ccc(Cn2c(C(=O)NC(C)C)c(Br)c3c2-c2[nH]c(=O)c(S(=O)(=O)c4ccccc4)cc2CC3)cc1 [PP086, 7-(Benzenesulfonyl)-3-bromo-1-[(4-methylphenyl)methyl]-8-oxo-N-(propan-2-yl)-4,5,8,9-tetrahydro-1H-pyrrolo[3,2-h]quinoline-2-carboxamide] | 116
CCOC(=O)c1c(Br)c2c(n1Cc1cccc(C)c1)-c1[nH]c(=O)c(S(=O)(=O)c3ccc(Cl)cc3)cc1CC2 [PP030, Ethyl 3-bromo-7-[(4-chlorophenyl)sulfonyl]-1-(3-methylbenzyl)-8-oxo-4,5,8,9-tetrahydro-1H-pyrrolo[3,2-h]quinoline-2-carboxylate] | 96
CCOC(=O)c1cc2c(n1Cc1ccc(Br)cc1)-c1[nH]c(=O)c(S(=O)(=O)c3ccccc3)cc1CC2 [PP060, Ethyl 7-(benzenesulfonyl)-1-[(4-bromophenyl)methyl]-8-oxo-4,5,8,9-tetrahydro-1H-pyrrolo[3,2-h]quinoline-2-carboxylate] | 148
CCOC(=O)c1cc2c(n1Cc1ccc(C)cc1)-c1[nH]c(=O)c(S(=O)(=O)c3ccc(C)cc3)cc1CC2 [PP023, Ethyl 7-(4-methylbenzene-1-sulfonyl)-1-[(4-methylphenyl)methyl]-8-oxo-4,5,8,9-tetrahydro-1H-pyrrolo[3,2-h]quinoline-2-carboxylate] | 89
CCOC(=O)c1c(Br)c2c(n1Cc1ccc(C)cc1)-c1[nH]c(=O)c(S(C)(=O)=O)cc1CC2 [PP036, Ethyl 3-bromo-7-(metansulfonyl)-1-[(4-methylphenyl)methyl]-8-oxo-4,5,8,9-tetrahydro-1H-pyrrolo[3,2-h]quinoline-2-carboxylate] | 23
CC(C)OC(=O)c1c(Br)c2c(n1CC1CC1)-c1[nH]c(=O)c(S(=O)(=O)c3ccccc3)cc1CC2 [PP106, Propan-2-yl 7-(benzenesulfonyl)-3-bromo-1-(cyclopropylmethyl)-8-oxo-4,5,8,9-tetrahydro-1H-pyrrolo[3,2-h]quinoline-2-carboxylate] | 277
Cc1ccc(Cn2c(C(=O)OC(C)C)cc3c2-c2[nH]c(=O)c(S(=O)(=O)c4ccccc4)cc2CC3)cc1 [PP022, Propan-2-yl 7-(benzenesulfonyl)-1-[(4-methylphenyl)methyl]-8-oxo-4,5,8,9-tetrahydro-1H-pyrrolo[3,2-h]quinoline-2-carboxylate] | 279

same assay, conditions: Table 3; compound at 10 μM plus VX-809; (QRTOT-QRVX)/QRVX

Compound | AI additivity index [%]
CCOC(=O)c1c(Br)c2c(n1Cc1cccc(C)c1)-c1nc(N)ncc1CC2 [SVQ4, Ethyl 2-amino-7-bromo-9-[(3-methylphenyl)methyl]-6,9-dihydro-5H-pyrrolo[3,2-h]quinazoline-8-carboxylate] | 4
CCOC(=O)c1cc2c(n1Cc1ccc(C)cc1)-c1nc(NS(=O)(=O)c3ccccc3)ncc1CC2 [SVQ9, Ethyl 2-[(benzenesulfonyl)amino]-9-[(4-methylphenyl)methyl]-6,9-dihydro-5H-pyrrolo[3,2-h]quinazoline-8-carboxylate] | 98

same assay, conditions: Table 5; compound at 10 μM plus VX-809; (QRTOT-QRVX)/QRVX

Compound | AI (%) additivity index [%]
CC(C)OC(=O)c1ccc2n1CCCc1cnc(N)nc1-2 [QZQ21, Propan-2-yl 2-amino-6,7-dihydro-5H-pyrimido[4,5-c]pyrrolo[1,2-a]azepine-9-carboxylate] | 6
CC(C)OC(=O)c1ccc2n1CCc1cnc(NC3CCCC3)nc1-2 [QZQ20, Propan-2-yl 2-(cyclopentylamino)-5,6-dihydropyrimido[5,4-g]indolizine-8-carboxylate] | 5
CC(=O)Nc1ncc2c(n1)-c1ccc(C(=O)OC(C)C)n1CCC2 [QZQ26, Propan-2-yl 2-acetamido-6,7-dihydro-5H-pyrimido[4,5-c]pyrrolo[1,2-a]azepine-9-carboxylate] | 2
CCOC(=O)c1ccc2n1CCc1cnc(NC3CCCC3)nc1-2 [QZQ14, Ethyl 2-(cyclopentylamino)-5,6-dihydropyrimido[5,4-g]indolizine-8-carboxylate] | 18

same assay, conditions: Table 6; compound at 10 μM plus VX-809; (QRTOT-QRVX)/QRVX

Compound | AI (%) additivity index [%]
CCOC(=O)c1nn(Cc2ccc(C)cc2)c2c1CCc1cc(S(=O)(=O)c3ccccc3)c(=O)[nH]c1-2 [PZ1, Ethyl 7-(benzenesulfonyl)-1-[(4-methylphenyl)methyl]-8-oxo-4,5,8,9-tetrahydro-1H-pyrazolo[4,3-h]quinoline-3-carboxylate] | 88
CCOC(=O)c1nn(Cc2cccc(C)c2)c2c1CCc1cc(S(=O)(=O)c3ccccc3)c(=O)[nH]c1-2 [PZ3, Ethyl 7-(benzenesulfonyl)-1-[(3-methylphenyl)methyl]-8-oxo-4,5,8,9-tetrahydro-1H-pyrazolo[4,3-h]quinoline-3-carboxylate] | 163
CCOC(=O)c1nn(Cc2ccc(Br)cc2)c2c1CCc1cc(S(=O)(=O)c3ccccc3)c(=O)[nH]c1-2 [PZ5, Ethyl 7-(benzenesulfonyl)-1-[(4-bromophenyl)methyl]-8-oxo-4,5,8,9-tetrahydro-1H-pyrazolo[4,3-h]quinoline-3-carboxylate] | 64

same assay, conditions: relative to the analogue

Compound | structure-activity comparison of corrector potency/activity
CCOC(=O)c1c(Br)c2c(n1Cc1ccc(C)cc1C)-c1[nH]c(=O)c(S(=O)(=O)c3ccccc3)cc1CC2 [PP033, Ethyl 7-(benzenesulfonyl)-3-bromo-1-[(2,4-dimethylphenyl)methyl]-8-oxo-4,5,8,9-tetrahydro-1H-pyrrolo[3,2-h]quinoline-2-carboxylate] | reduction in activity compared to PP008
